# Key:
# [1] = test system: Balb/c mice; assay: Hot-Plate Test (antinociceptive effect), sub-chronic oral administration; type: in vivo; conditions: po daily for 16 days, 0.1 and 5 mg/Kg, hot plate on days 1, 8 and 15
# Description: The objective of the study was to assess antinociceptive activity of tested items in the hot plate tests in mice, when administered sub-chronically. Measuring paw licking or jumping response time elapses following placement on heated surface (hot plate) was used to determine potential antinociceptive effect in mice.
# A total of 42 Balb/c mice (12 weeks old) were utilized. The mice were approximately 25 g males at study initiation. The minimum and maximum weights of the group were within a range of ±10% of group mean weight.
# Compounds 2 and 3 were tested and compared with Diclofenac® (Perigo). DMSO solutions were used. Six groups of mice (each having n=7 or n=8 mice) were tested, the last group receiving Diclofenac®.
# All groups received the drugs daily po for 16 days. Hot plate experiments were performed on days; 1, 8 and 15.
# The hot plate is maintained thermostatically at a temperature of 52° C. One hour before the administration of the drugs, mice are tested in the hot plate. At time 0 the mice are administered with the test compound and the response to the hot plate is measured again at different times: 60, 120, 180, 240, 300 and 360 min.
# Results are expressed as: Delta from maximum response [baseline vs. maximum response]; Absolute measures over time; and Accumulated time.
# [2] = test system: Balb/c mice; assay: Formalin test; type: in vivo; conditions: i.p. 0.2, 1, 2.5 mg/kg, formalin 1% intraplantar 3 h or 4 h after the treatment, FIGS. 12a-12e
# Description: Formalin test. The method used was similar to that described by Hunscaar and Hole (1987) “The formalin test in mice: dissociation between inflammatory and non-inflammatory pain,” Pain 30, pp. 103-104.
# Five animals are used in each group and two to three hours after oral administration of the conjugates, 40 μl or 20 μl (rats or mice, respectively) of a 1% formalin (in 0.9% saline) solution is injected subcutaneously into the dorsal surface hind paw. The formalin induced typical flinching behaviour of the injected paw which was counted. The animals were returned to a glass chamber and the total time spent by the animal licking or biting the injected paw was measured. Formalin induced pain behaviour is biphasic. The duration of paw licking was determined during the following two time periods: 0-5 min (first-neurogenic phase) and 20-30 min (second-inflammatory phase) after formalin injection.
# Part a. Male mice (Balb/c mice, 27 weeks old, not naïve), were divided in 4 groups (5 mice per group) and treated (0 min, i.p.) with the following formulations, respectively: […]
# Part b. Male mice (Balb/c mice, 27 weeks old, not naïve), were divided in 4 groups (5 mice in groups) and treated (0 min, i.p.) with the following formulations, respectively: […]
smiles,measurement,setting,value
CC(O)COCC(Cc1ccc(O)cc1)NC(=O)CCc1ccccc1 (stereo not drawn) [Compound 2],effectiveness as pain relievers (hot plate test),[1],effective as pain relievers
same,anti-inflammatory properties (formalin test),[2],confirm the anti-inflammatory properties
O=C(CCc1ccccc1)NC(COCCO)Cc1ccc(O)cc1 (stereo not drawn) [Compound 3],effectiveness as pain relievers (hot plate test),[1],effective as pain relievers
